{"source": "patent US11583515B2", "about": "“Composition and method for rapidly inducing an endogenous ketosis” (priority 2015, dated 2023)", "origin": "cited, not measured here", "key": {"[1]": {"conditions": "racemic mixture of R and S enantiomers, taken orally"}, "[2]": {"system": "insulin signaling cascade", "conditions": "600, 1200, and 1800 mg daily for four weeks; individuals with impaired insulin signaling cascades"}, "muscle cells": {"system": "muscle cells", "conditions": "with and without the presence of insulin or exercise"}, "[3]": {"conditions": "in vivo"}}}
{"compound": "O=C(O)CCCCC1CCSS1", "note": "(racemic) [Alpha Lipoic acid, 1,2-dithiolane-3-pentanoic acid]", "values": [{"measurement": "bioavailability after absorption", "setting": "[1]", "result": "~30", "unit": "%"}, {"measurement": "complete plasma clearance", "setting": "[1]", "result": "approximately three hours"}, {"measurement": "half-life", "setting": "[1]", "result": "thirty minutes to one and one half hours"}, {"measurement": "improvement of effectiveness of the signaling cascade on glucose uptake and utilization", "setting": "[2]", "result": 25, "unit": "%"}, {"measurement": "effect on mother or child", "setting": "2014 study, treating peripheral neuropathy during pregnancy", "result": "no harmful effect"}, {"measurement": "safety of supplementation", "setting": "animal or human studies, various ranges of intake, large doses or extended use", "result": "safe with no widespread serious or life-threatening reactions reported"}]}
{"compound": "beta-hydroxybutyrate salts", "values": [{"measurement": "effect on triglycerides or total cholesterol", "setting": "Dawley rats; after four weeks of repeated daily ingestion", "result": "no effect"}, {"measurement": "effect on blood glucose numbers", "setting": "Dawley rats; orally supplemented, 28 days", "result": "improved"}, {"measurement": "effect to promote weight loss", "setting": "Dawley rats; orally supplemented, 28 days", "result": "no effect"}, {"measurement": "blood level of beta-hydroxybutyrate, acetoacetate, and acetone", "setting": "Dawley rats; supplementation", "result": "increases"}]}
{"compound": "[Cr]", "note": "[Chromium]", "values": [{"measurement": "rate of cellular glucose uptake", "setting": "muscle cells", "result": "several times normal"}, {"measurement": "doses used without any reported adverse effects", "setting": "chromium containing supplements", "result": "up to 1000 mcg"}, {"measurement": "absorption, share of an ingested dose", "setting": "[3]", "result": "1-2%"}, {"measurement": "complete plasma clearance half-life", "setting": "[3]", "result": "8 to 12", "unit": "h"}]}
